US12629348B2, “Method and composition for treating osteoarthritis” (Vireo Systems, Inc., priority 2013, dated 2026)

Assays:
serum amyloid A = test: Serum amyloid A (solid phase sandwich EIA) in OA canines; format: in vivo, canine; settings: 36 mg/kg/day oral
Protocol: The double-blind study was performed on a total of 30 adult canines of various breeds in five different private practice clinics. Owner consent was obtained prior to participation in the study. Each clinic was responsible for enrolling 6 canines into the study. Inclusion criteria for the study consisted of clinical assessment and radiograph confirmation of OA in at least one joint and a score of 22 or greater on the Helsinki chronic pain index (“HCPI”). Use of NSAIDs or other dietary supplements for OA were allowed, provided the current treatment regimens had not been altered for a period of at least three months. […]
In addition to the standard blood chemistry profile, blood samples taken before and at the conclusion of the two-week trial period were analyzed for PGE2 and SAA. […] Both plasma and serum samples were centrifuged at 2000×g for 10 minutes and the plasma and serum supernatants removed and frozen at […] until analyzed for PGE2 and SAA using enzyme-linked immunosorbent assays (“HA”). […] Plasma samples were analyzed for PGE2 using the bicycle PGE2 competitive EIA kit purchased from Cayman Chemical (Ann Arbor, MI). The assay converts PGE2 metabolites into a stable derivative that is measured using EIA. Samples (100 μl) were analyzed in triplicate and PGE2 concentrations determined by use of standard curve. […]

canines having OA = test: Double-blind randomized trial in OA canines: owner assessment of pain and mobility (Helsinki chronic pain index, HCPI); format: in vivo, canine
Protocol: The following example evaluates the effectiveness of Alpha-GEE on both pain and mobility in a double-blind randomized trial in canines having OA. […] Together these findings provide clinical evidence of the effectiveness of treatments with Alpha-GEE in reducing the pain and restricted mobility of canines with OA.
The double-blind study was performed on a total of 30 adult canines of various breeds in five different private practice clinics. Owner consent was obtained prior to participation in the study. Each clinic was responsible for enrolling 6 canines into the study. Inclusion criteria for the study consisted of clinical assessment and radiograph confirmation of OA in at least one joint and a score of 22 or greater on the Helsinki chronic pain index (“HCPI”). Use of NSAIDs or other dietary supplements for OA were allowed, provided the current treatment regimens had not been altered for a period of at least three months. A randomized block design was used with canines assigned in a one to one ratio into either placebo (36 mg/kg/day maltose-dextran; Vireo Resources, Plattsmouth, NE) or Alpha-GEE (36 mg/kg/day; Vireo Resources, Plattsmouth, NE) treatment group. The block size was six canines, corresponding to the total number of canines enrolled from each clinic. Group assignments for each canine were blinded to both the owners and attending veterinarian until all the data was collected and reported. Both Alpha-GEE and placebo were provided in 400 mg capsules and owners were instructed on the proper method for daily oral administration of capsules to their canines and provided with the appropriate number of capsules for the duration of the 2-week study. Blood samples were taken at both the start and conclusion of the two-week trial period to monitor for changes in blood chemistry as well as potential changes in inflammatory markers as described below. Owners completed the HCPI prior to starting the study, one-week after starting the study, and a final time at the conclusion of the study at two-weeks.
Statistical evaluations of pain (HCPI), mobility (pedometer readings), and inflammatory markers were performed using ANOVA and Student Newman Keuls post-hoc comparison of means.
Owner assessment of pain and mobility in canines participating in the trial were based on the HCPI. The HCPI is a method for appraisal of pain and mobility in canines. The assessment is based on owner responses to eleven questions with a numerical answer between 0-4. Scoring on the HCPI ranges from 0 to 44, with higher numbers reflecting more pain and immobility present in the canine. Canines in both placebo and treatment group had similar initial pre-trial HCPI scores. […]

ethyl (α-guanido-methyl) ethanoate [Alpha-GEE]
Serum Amyloid A concentration, post-trial (serum amyloid A; mean ± SD after two weeks, pre-trial 673 ± 869, p < 0.05 compared to placebo (1483 ± 1653)): 255 ± 221 ng/mL | SAA levels compared to placebo at the end of the study (serum amyloid A; two-week trial, 36 mg/kg/day): significantly lower | reduction in HCPI score (canines having OA; after the first week, 36 mg/kg/day oral, not statistically different from placebo): 10-15% | HCPI score, post-trial value (canines having OA; after two weeks, 36 mg/kg/day oral, pre-trial value 28, scale 0 to 44): 15 | HCPI scores at the conclusion of the study versus placebo (canines having OA; two weeks, p<0.001): significantly different | magnitude of change in HCPI scores during the entire trial (mean+SD) (canines having OA; two weeks, range 2 to 20, placebo 3+4): 13+7
